How the values were obtained:
[1] = tested on: IL-6; test: LPS-induced IL-6 secretion reduction in RAW264.7 cells (ELISA); type: cell-based, mouse; details: sample 100 μg/ml 1 h, then LPS 1 μg/ml 24 h, Table 2
Method: In DMEM (Dulbecco Modified Eagle Medium, Hyclone, Thermo Scientific) medium to which 10% Fetal Bovine Serum was added, RAW264.7 cells, a mouse macrophage family, were suspended at a concentration of 1×10^5 cells/ml, and culture was conducted in a 5% CO2 humidified incubator at 37° C. The cultured RAW264.7 cells were inoculated into a 48 well plate by 5×10^4 cells/ml and stabilized for 15 hours. Then, the culture solution was treated with a glycerol derivative compounds of the type shown in Table 2 and 3 below for 1 hour and then was treated with 1 μg/ml of Lipopolysaccaride (LPS) of a cell stimulator, and subsequent further incubation was conducted for 24 hours. Thereafter 0.5 ml of the culture supernatant was collected for each well and centrifuged (at 3000 rpm, 5 minutes) to recover the supernatant. The IL-6 level in the recovered supernatant was measured according to the manual provided by the Mouse IL-6 ELISA set (BD Biosciences). The day before ELISA was carried out, the IL-6 capture antibody was diluted in phosphate buffered saline, coated on a microwell, and then stored at 4° C. overnight. Each well was washed three times with a buffer solution and then blocked with 2% Bovine Serum Albumin (BSA) for 1 hour at room temperature. After washing with buffer solution three times, […] of sample was dispensed into each well and left at room temperature for 2 hours. Detection antibody which was washed 3 times with washing buffer solution and diluted was dispensed into each well and allowed to react at room temperature for 1 hour and left at room temperature for 1 hour. Thereafter, the secondary HRP conjugated antibody was reacted at room temperature for 30 minutes, washed three times with a buffer solution, and treated with 50 μl of stop solution for each well, and then the optical density was measured at 450 nm with an ELISA microplate leader. The results of the IL-6 expression reduction rate (IL-6 concentration) are shown in Table 2, Table 3, FIG. 1 and FIG. 2 below.

[2] = tested on: STAT3; test: IL-6-induced STAT3 activity, SEAP expression in HEK-Blue IL-6 cells; type: cell-based; details: HEK-Blue IL-6 cells; for decrease of STAT3 activity compared to the IL-6 cytokine-treated group: 100 μg/ml; for STAT3 activity_SEAP expression(%) (average ± deviation): sample 100 μg/ml 1 h, then IL-6 5 ng/ml 24 h, negative control = 100
Method: HEK-Blue™ IL-6 cells were used to confirm STAT3 activity by STAT3-induced SEAP (secreted embryonic alkaline phosphatase) expression. In DMEM (Hyclone, Thermo Scientific) medium to which 10% Fetal Bovine Serum was added, HEK-Blue™ IL-6 cells were cultured at a concentration of 1×10^5 cells/ml, and maintained in a 5% CO2 humidified incubator at 37° C. The cultured HEK-Blue™ IL-6 cells were inoculated by 1×10^5 cells/ml. Then, the culture solution was treated with a glycerol derivative compounds of the type shown in Table 4 below for 1 hour and then IL-6 (5 ng/ml) was further incubated for 24 hours for STAT3 activity. Thereafter, the culture supernatant was collected for each well and centrifuged (at 3000 rpm, 5 minutes) to recover the supernatant. The SEAP expression level in the recovered supernatant was mixed with Quanti blue reagent and the supernatant at a ratio of 1:10 and left at 37° C. for about 30 minutes. Then, the SEAP concentration was confirmed at 650 nm wavelength using a spectrophotometer, and the results (STAT3 activity inhibitory ability) thereof are shown in Table 4 and FIG. 3 below.

[3] = tested on: CXCL8 (IL-8); test: CXCL8 (IL-8) expression reduction in Gemcitabine-treated THP-1 cells (ELISA); type: cell-based, human; details: THP-1 cells; for CXCL8 [IL-8] concentration (average ± deviation): sample 100 μg/ml 1 h, then Gemcitabine 2 μg/ml 24 h
Method: In RPMI (Hyclone, Thermo Scientific) medium to which 10% Fetal Bovine Serum was added, THP-1 cells, a human macrophage family, were suspended at a concentration of 1×10^5 cells/ml, and culture was conducted in a 5% CO2 humidified incubator at 37° C. The cultured THP-1 cells were inoculated into a 12 well plate by 1×10^6 cells/ml and stabilized for 30 minutes. Then, the culture solution was treated with a glycerol derivative compounds of the type shown in Table 6 below for 1 hour and then was treated with Gemcitabine (2 μg/ml) of a cell stimulator, and subsequent further incubation was conducted for 24 hours. Thereafter 1.5 ml of the culture supernatant was collected for each well and centrifuged (at 3000 rpm, 5 minutes) to recover the supernatant. The CXCL8 (IL-8) level in the recovered supernatant was measured according to the manual provided by the human IL-8 ELISA set (BD Biosciences). The day before ELISA was carried out, the IL-8 capture antibody was diluted in phosphate buffered saline, coated on a microwell, and then stored at 4° C. overnight. Each well was washed three times with a buffer solution and then blocked with 2% Bovine Serum Albumin (BSA) for 1 hour at room temperature. After washing with washing buffer solution three times, 100 μl of sample was dispensed into each well and left at room temperature for 2 hours. Detection antibody which was washed 3 times with washing buffer and diluted was dispensed into each well and allowed to react at room temperature for 1 hour and left at room temperature for 1 hour. Thereafter, the secondary HRP conjugated antibody was reacted at room temperature for 30 minutes, washed three times with a washing buffer, and treated with 50 μl of stop solution for each well, and then the optical density was measured at 450 nm with an ELISA microplate leader.

[4] = tested on: HL-60 cells; test: Migration of HL-60 cell line toward THP-1 culture supernatant (transmigration assay); type: cell-based, human; details: supernatant of THP-1 cells treated with sample 100 μg/ml 1 h, then Gemcitabine 2 μg/ml 24 h
Method: In RPMI (Hyclone, Thermo Scientific) medium to which 10% Fetal Bovine Serum was added, THP-1 cells, a human macrophage family, were subcultured at a concentration of 1×10^5 cells/ml, and culture was conducted in a 5% CO2 humidified incubator at 37° C. In order to prepare the THP-1 cell culture solution to be treated in the lower well during the transmigration assay, first, the cultured THP-1 cells were inoculated into a 12 well plate by 1×10^6 cells/ml and stabilized for 30 minutes. Then, the culture solution was treated with a glycerol derivative compounds of the type shown in Table 7 below for 1 hour and then was treated with Gemcitabine (2 μg/ml) of a cell stimulator, and subsequent further incubation was conducted for 24 hours. Thereafter 1.5 ml of the culture supernatant was collected for each well and centrifuged (at 3000 rpm, 5 minutes) to recover the supernatant. The CXCL8 (IL-8) level in the recovered supernatant was measured according to the manual provided by Cultrex 96 well Laminin Cell Invasion assay. The day before Transmigration assay was carried out, a 1× Lamin I solution was treated in the upper Invasion Chamber and coated. Thereafter, in RPMI (Hyclone, Thermo Scientific) medium to which 10% Fetal Bovine Serum was added, the cultured HL-60 cells were despensed of 5×10^4 cells/chamber, and 150 μl of the THP-1 culture supernatant prepared in advance was added to the lower chamber. Thereafter the upper chamber was removed, and the cells were attached to the bottom of the lower chamber by a centrifuge, and then the supernatant was removed. Cell dissociation/Calcein-AM solution was added and reacted for 1 hour. Then, the value obtained using a fluorescence spectroscopy was calculated by converting the number of cells.

[5] = tested on: STAT6; test: IL-4-induced STAT6 activity, pGL4-STAT6 luciferase reporter in A549 cells; type: cell-based; details: sample 100 μg/ml 1 h, then IL-4 (2 ng/ml) 20 h, Table 9
Method: In DMEM (Dulbecco Modified Eagle Medium, Hyclone, Thermo Scientific) medium to which 10% Fetal Bovine Serum was added, A549 cells were subcultured at a concentration of 1×10^5 cells/ml, and culture was conducted in a 5% CO2 humidified incubator at 37° C. The cultured A549 cells were inoculated into a 48 well plate by 1×10^5 cells/ml and stabilized for 18 hours. Thereafter, pGL4-STAT6 reporter vector containing a STAT6 binding promoter portion was mixed with Attractene to induce complex formation at room temperature for 15 minutes. This complex was treated with the cells and then further incubated for 24 hours. Thereafter, the culture solution was treated with a glycerol derivative compounds of the type shown in Table 9 and 10 below for 1 hour, and then IL-4 (2 ng/ml or 10 ng/ml) was further incubated for 20 hours for STAT6 activity. Thereafter, the culture supernatant was removed for each well, and the remaining cells were lysed with a cell lysis buffer, and then cell lysate was recovered. 90 μl of luciferase reagent was mixed with 10 μl of the recovered cell lysate, and the degree of fluorescence was confirmed using a luminometer. The results are shown in Table 9, Table 10, FIG. 9 and FIG. 10 below.

[6] = tested on: IL-4; test: PKC activator-induced IL-4 secretion reduction in EL-4 cells (ELISA); type: cell-based, mouse; details: sample 100 μg/ml 2 h, then PKC activator 18 h, Table 11
Method: In DMEM (Dulbecco Modified Eagle Medium, Hyclone, Thermo Scientific) medium to which 10% Fetal Bovine Serum was added, EL-4 cells, a mouse lymphoma family, were subcultured at a concentration of 1×10^5 cells/ml, and culture was conducted in a 5% CO2 humidified incubator at 37° C. The cultured EL-4 cells were inoculated into a 48 well plate by 5×10^4 cells/ml and stabilized for 30 hours. Then, the culture solution was treated with a glycerol derivative compounds of the type shown in Table 11 and 12 below for 2 hours. Thereafter, it were treated with 0.5 μg/ml of PKC activator (p10, some kind of PMA) of a cell stimulator, and subsequent further incubation were conducted for 18 hours. Thereafter 0.5 ml of the culture supernatant was collected for each well and centrifuged (at 3000 rpm, 5 minutes) to recover the supernatant. The IL-4 level in the recovered supernatant was measured according to the manual provided by the Mouse IL-4 ELISA set (BD Biosciences). The day before ELISA was carried out, the IL-4 capture antibody was diluted in phosphate buffered saline, coated on a microwell, and then stored at 4° C. overnight. Each well was washed three times with a buffer solution and then blocked with 2% Bovine Serum Albumin (BSA) for 1 hour at room temperature. After washing with buffer solution three times, 100 μl of sample was dispensed into each well and left at room temperature for 2 hours. Detection antibody which was washed 3 times with washing buffer solution and diluted was dispensed into each well and allowed to react at room temperature for 1 hour and left at room temperature for 1 hour. Thereafter, the secondary HRP conjugated antibody was reacted at room temperature for 30 minutes, washed three times with buffer solution, and treated with 50 μl of stop solution for each well, and then the optical density was measured at 450 nm with an ELISA microplate leader. The results of the measured expression reduction rate ([…]) were shown in Table 11, Table 12, FIG. 11 and FIG. 12 below.

CCCCC/C=C\C/C=C\CCCCCCCC(=O)OC(COC(=O)CCC)COC(=O)CCCCCCCCCCCCCCC (centres unmarked) [EC_A17]
IL-6 concentration (average ± deviation) [1]: 0.154 ± 0.001 µg/mL | decrease of STAT3 activity compared to the IL-6 cytokine-treated group [2]: about 25% | STAT3 activity_SEAP expression(%) (average ± deviation) [2]: 185.4 ± 19.3% | CXCL8 [IL-8] concentration (average ± deviation) [3]: 110 ± 0.2 pg/µL | Number of HL-60 cells migrated through Transwell [4]: 30692.8 Cell Number | STAT6 activity_Luciferase activity (average ± deviation) [5]: 476.2 ±113.4

CCCCC/C=C\C/C=C\CCCCCCCC(=O)OC(COC(=O)CCCC)COC(=O)CCCCCCCCCCCCCCC (centres unmarked) [EC_A18]
IL-6 concentration (average ± deviation) [1]: 0.147 ± 0.003 µg/mL | decrease of STAT3 activity compared to the IL-6 cytokine-treated group [2]: about 25% | STAT3 activity_SEAP expression(%) (average ± deviation) [2]: 166.2 ± 29.6% | reduction of CXCL8 (IL-8) expression/secretion ([3]; Gemcitabine-treated, 100 μg/ml): about 20% | CXCL8 [IL-8] concentration (average ± deviation) [3]: 84.0 ± 1.8 pg/µL | Number of HL-60 cells migrated through Transwell [4]: 9891.6 Cell Number | STAT6 activity_Luciferase activity (average ± deviation) [5]: 1189.2 ± 174.7

CCCCC/C=C\C/C=C\CCCCCCCC(=O)OC(COC(=O)CCCCCCCCCCCCCCC)COC(=O)C(C)C (centres unmarked) [EC_A19]
IL-6 concentration (average ± deviation) [1]: 0.204 ± 0.014 µg/mL | STAT3 activity_SEAP expression(%) (average ± deviation) [2]: 162.9 ± 33.2% | CXCL8 [IL-8] concentration (average ± deviation) [3]: 277.9 ± 3.1 pg/µL | Number of HL-60 cells migrated through Transwell [4]: 14882.8 Cell Number | STAT6 activity_Luciferase activity (average ± deviation) [5]: 898.7 ± 115.9

CCCCC/C=C\C/C=C\CCCCCCCC(=O)OC(COC(=O)CCCCCCCCCCCCCCC)COC(C)OC (centres unmarked) [EC_A70-1]
IL-6 concentration (average ± deviation) [1]: 0.144 ± 0.028 µg/mL | STAT3 activity_SEAP expression(%) (average ± deviation) [2]: 259.5 ± 28.4% | CXCL8 [IL-8] concentration (average ± deviation) [3]: 200.1 ± 1.0 pg/µL | Number of HL-60 cells migrated through Transwell [4]: 4047.1 Cell Number | IL-4 concentration (average ± deviation) [6]: 865.6 ± 127.9 pg/µL
